Laboratory results taken from patent publication US11166924B2, “N-methyl-d-aspartate receptor allosteric modulators and methods for their use” (Qingdao Primedicine Pharmaceutical Company, Ltd., priority 2016, dated 2021).

Columns and labels:
[1] = system: CREB phosphorylation (pCREB); experiment: CREB phosphorylation (pCREB) immunoblotting in cortical neurons; assay type: cell-based, rat; conditions: presence or absence of ifenprodril; FIG. 15a
Protocol: Dissociated cultures of rat cortical neurons were prepared from 18 day-old Sprague Dawley rat embryos as described previously. To obtain mixed cortical cultures enriched with neurons, uridine (10 μM) and 5-Fluor-2′-deoxyuridine (10 μM) were added to the culture medium at 3 days in vitro (DIV) and maintained for 48 h to inhibit non-neuronal cell proliferation before the cultures were returned to the normal culture medium. Mature neurons (11-14 DIV) were used for experiments. Mouse cortical cultures were prepared using embryos at 18 days post-coitum from litters resulting from heterozygote GluN2A+/− or GluN2B+/− matings. To obtain homozygous and wild-type (WT) littermate control neuronal cultures, cortical cells from individual embryos were plated separately. Genotyping was performed as described previously using tail samples collected from each embryo. To induce neuronal apoptosis, cortical cultures were stimulated with NMDA (50 μM) and glycine (10 μM) for 20 min, or STS (100 nM) for 1 h in Mg2+-free extracellular solution (ECS) containing the following (in mM): 25 HEPES acid, 140 NaCl, 33 glucose, 5.4 KCl, and 1.3 CaCl2, with pH 7.35 and osmolarity 320-330 mOsm. […]

[2] = target: T1, GluN2B NMDARs in hippocampal slices (Mus musculus, UniProt P35438+Q01097); experiment: Slice recordings, GluN2B component of synaptic NMDAR currents; conditions: FIG. 18
T1 construct: from tissue; host or cells: mouse hippocampal slices, CA1 pyramidal neurons
T1 sequence (Q01097 27-1482, other chains not shown): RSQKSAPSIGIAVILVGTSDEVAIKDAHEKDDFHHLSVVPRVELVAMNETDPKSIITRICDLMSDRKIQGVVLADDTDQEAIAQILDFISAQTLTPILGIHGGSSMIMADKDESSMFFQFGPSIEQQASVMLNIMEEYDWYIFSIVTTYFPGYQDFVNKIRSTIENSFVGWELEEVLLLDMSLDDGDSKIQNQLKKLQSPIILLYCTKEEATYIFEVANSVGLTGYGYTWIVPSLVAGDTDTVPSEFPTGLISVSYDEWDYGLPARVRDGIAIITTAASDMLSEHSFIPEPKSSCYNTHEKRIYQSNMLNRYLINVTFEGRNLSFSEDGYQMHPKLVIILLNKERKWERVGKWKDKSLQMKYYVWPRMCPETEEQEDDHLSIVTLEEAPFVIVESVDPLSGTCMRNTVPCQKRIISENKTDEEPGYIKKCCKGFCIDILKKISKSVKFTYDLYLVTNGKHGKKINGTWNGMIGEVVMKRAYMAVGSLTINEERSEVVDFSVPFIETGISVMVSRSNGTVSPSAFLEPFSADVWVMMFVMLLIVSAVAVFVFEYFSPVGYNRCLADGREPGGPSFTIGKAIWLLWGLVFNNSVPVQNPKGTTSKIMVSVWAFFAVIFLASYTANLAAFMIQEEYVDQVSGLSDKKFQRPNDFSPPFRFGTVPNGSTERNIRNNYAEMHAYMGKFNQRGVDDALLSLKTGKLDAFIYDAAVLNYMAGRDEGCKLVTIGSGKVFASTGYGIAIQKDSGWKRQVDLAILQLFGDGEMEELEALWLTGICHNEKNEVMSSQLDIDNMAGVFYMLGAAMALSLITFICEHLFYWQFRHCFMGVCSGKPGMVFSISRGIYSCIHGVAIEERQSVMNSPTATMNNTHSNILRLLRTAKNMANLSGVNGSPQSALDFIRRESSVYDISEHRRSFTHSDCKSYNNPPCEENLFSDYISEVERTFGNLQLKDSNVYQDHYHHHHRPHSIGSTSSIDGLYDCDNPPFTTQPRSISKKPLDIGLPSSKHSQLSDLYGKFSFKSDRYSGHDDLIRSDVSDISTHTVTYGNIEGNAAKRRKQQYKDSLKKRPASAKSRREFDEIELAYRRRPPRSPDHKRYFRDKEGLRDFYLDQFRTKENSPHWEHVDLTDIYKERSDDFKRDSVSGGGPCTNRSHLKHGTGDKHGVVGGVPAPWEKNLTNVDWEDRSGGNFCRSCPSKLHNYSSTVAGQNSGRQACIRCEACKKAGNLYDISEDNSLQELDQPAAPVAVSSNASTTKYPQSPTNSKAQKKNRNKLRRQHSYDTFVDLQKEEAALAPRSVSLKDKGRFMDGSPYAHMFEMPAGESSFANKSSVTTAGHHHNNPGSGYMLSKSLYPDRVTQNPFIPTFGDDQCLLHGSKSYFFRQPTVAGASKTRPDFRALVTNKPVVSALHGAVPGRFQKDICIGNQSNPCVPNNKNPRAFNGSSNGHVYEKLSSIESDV
Description: 6-8 week old C57/Bl6 mice or rats underwent cervical dislocation followed by decapitation. The brain was immediately transferred to an ice cold NMDG-based cutting solution consisting of: (in mM): 120 NMDG, 2.5 KCl, 1.2 NaH2PO4, 25 NaHCO3, 1.0 CaCl2, 7.0 MgCl2, 2.4 Na-pyruvate, 1.3 Na-ascorbate, 20 D-glucose with pH adjusted to 7.35 using HCl acid (unless stated, all chemicals and drugs were purchased from Sigma or BioShop, Canada). The hippocampus was dissected out and transverse hippocampal slices (400 μm) were obtained using a manual tissue chopper (Stoelting, Wood Dale, Ill., USA). Slices recovered in a heated (30° C.) incubating chamber for 1 hr which contained ACSF composed of (in mM): 124 NaCl, 3 KCl, 1.25 NaH2PO4, 1 MgSO47H2O, 2 CaCl2), 26 NaHCO3 and 15 D-glucose which was bubbled continuously with carbogen (95% O2/5% CO2) (pH to 7.3). After 30 additional minutes at room temperature, slices were transferred to a submerged recording chamber and were perfused continuously with carbogenated ACSF (2-3 ml/min). Whole-cell recordings of CA1 pyramidal neurons were performed using the “blind” method with a MultiClamp 700B amplifier. EPSCs (excitatory post synaptic currents) were elicited by stimulating the SC pathway. For isolation of NMDAR currents, cells were voltage clamped at +40 mV. […]

pCREB = pCREB levels in hippocampal and cortical tissue after i.v. injection; assay type: in vivo, rat; conditions: 1 mg/kg i.v., 1 h post-treatment
Protocol: Brain tissues or cultured cells were lysed on ice in the lysis buffer and then the solution was centrifuged at 14,000 rpm for 10 min at 4° C. Next, the supernatant was collected and protein concentrations were determined using a BCA protein assay kit (Thermo Scientific, 23227). Equal amount of protein samples were mixed with 4 times sample buffer, boiled at 100° C. for 5 min, and separated on 10% sodium dodecyl sulphate-polyacrylamide gel electrophoresis (SDS-PAGE). Proteins were then transferred to Immobilon-PTM polyvynilidene fluoride (PVDF) membranes (Bio-Rad, 162-0177). The membranes were blocked with 5% non-fat milk in Tris-buffered saline containing 0.1% Tween-20 (TBST) for 1 hour at room temperature, and then incubated overnight at 4° C. with primary antibody. After washing 3×5 min in TBST, protein was visualized in the Bio-Rad Imager using ECL Western blotting substrate (Pierce, 32016). For the detection of phospho-CREB, samples prepared in the same day were used. The polyvinylidene difluoride membrane (Millipore, Bedford, Mass., USA) was incubated with primary antibody against phospho-CREB (Ser133) (Cell Signaling Technology, Beverly, Mass.). […] The band density of each protein was quantified by the Bio-Rad Quantity One software and the relative optical density was analyzed relative to loading total-CREB on the same membrane. […]

CCOc1cc(Cl)c(Cl)c(/C=N/NC(=O)c2ccccc2Br)c1O [Npam43, (E)-2-bromo-N′-(2,3-dichloro-5-ethoxy-6-hydroxybenzylidene)benzohydrazide]
CREB phosphorylation (pCREB) [1]: increases
Effect on GluN2B NMDARs [2]: no effects on the GluN2B NMDARs
pCREB levels in hippocampal and cortical tissue (pCREB): elevated
